Measured values: US9381187B2, “Radiation countermeasure agents” (PALOMA PHARMACEUTICALS, INC., priority 2011, dated 2016)

Experiments:
[1] = tested on: HOS cells (human osteoblast cells); assay: Cellular radioprotection, colony formation assay (cell survival after gamma radiation); format: cell-based; details: for survival: HOS cells under radioprotective treatment conditions (FIG. 2); for DRF: in vitro comparison with amifostine, HOS cells, gamma radiation (FIG. 2)
Experimental: Radiation protection by P529 is evaluated using a human osteoblast cell model (HOS cells). The effect of P529 (10 μM, 4 hr) on cell survival after radiation is assessed; cell survival was measured using the colony formation assay.

[2] = tested on: C57 mice exposed to gamma radiation; assay: Mitigation of radiation effect in vivo (TBI 9 Gy); details: female C57 mice, 9 Gy gamma radiation; ip 100 μl on day 1 and days 3-26
Excerpt: Sixteen female C57 mice are exposed to gamma radiation (9 Gy). Group 1 received radiation only (no drug). Group 2 received radiation and P529 as noted in the following schedule: […]

HOS cells = assay: Chromosomal radiation protection, metaphase aberration scoring; format: cell-based, human; details: for Breaks / Fragments / Percent Aberrant Cells / Rings + Dicentrics: Radiation + P529 (25 uM, 12 hrs pre-radiation)
Experimental: Non-tumorigenic immortalized human osteosarcoma cells (HOS) are exposed to increasing doses of gamma radiation (O-4 Gy; 6.6 Gy/min). Control cells receive no drug; Drug-treated cells receive P529 (25 uM, 12 hrs pre-radiation). Metaphase plates are prepared from control and drug-treated cells (Gupta, Br J Radiol, 59:625 1986). A total of 100 metaphases are examined per group/dose. Aberrant metaphases, chromatid and chromosome breaks, fragments, rings, and dicentrics are scored under a light microscope. Aberrations are identified using criteria given by Savage (J Med Genetics 12:103-122, 1976).

COc1ccc(COc2cc3oc(=O)c4cc(C(C)O)ccc4c3cc2OC)cc1 (stereo not shown) [P529, 8-(1-Hydroxy-ethyl)-2-methoxy-3-(4-methoxy-benzyloxy)-benzo[c]chromen-6-one]
dose-reduction factor (DRF) ([1]; HOS cells pretreated 10 μM for 4 hr prior to gamma radiation, at the 0.005 survival fraction (FIG. 1)): 1.38 | survival [1]: 0.99 | DRF [1]: 1.34 | radiation resistance of cells ([1]; pretreated 10 μM for 4 hr prior to radiation exposure): significant radiation resistance | mitigation of radiation effect and damage [2]: can mitigate the radiation effect | Breaks (HOS cells; dose 0 Gy): .0016 ± .0002 | Fragments (HOS cells; dose 0 Gy): .007 ± .0009 | Percent Aberrant Cells (HOS cells; dose 0 Gy): .66 ± .07% | Rings + Dicentrics (HOS cells; dose 0 Gy): 0.00 ± 0.0 | Breaks (HOS cells; dose 1 Gy): .0013 ± .0002 | Fragments (HOS cells; dose 1 Gy): .05 ± .006 | Percent Aberrant Cells (HOS cells; dose 1 Gy): 3.1 ± .033% | Rings + Dicentrics (HOS cells; dose 1 Gy): 0.00 ± 0.0 | Breaks (HOS cells; dose 2 Gy): .0018 ± .0002 | Fragments (HOS cells; dose 2 Gy): .118 ± .022 | Percent Aberrant Cells (HOS cells; dose 2 Gy): 5.0 ± .052% | Rings + Dicentrics (HOS cells; dose 2 Gy): .003 ± .0004 | Breaks (HOS cells; dose 3 Gy): .0022 ± .0003 | Fragments (HOS cells; dose 3 Gy): .23 ± .028 | Percent Aberrant Cells (HOS cells; dose 3 Gy): 11.4 ± 1.22% | Rings + Dicentrics (HOS cells; dose 3 Gy): .005 ± .0004 | Breaks (HOS cells; dose 4 Gy): .0039 ± .0004 | Fragments (HOS cells; dose 4 Gy): .30 ± .031 | Percent Aberrant Cells (HOS cells; dose 4 Gy): 19.5 ± 1.29% | Rings + Dicentrics (HOS cells; dose 4 Gy): .017 ± .002 | chromosomal protection from radiation exposure (HOS cells; human HOS cells, Table 2): can provide chromosomal protection from radiation exposure

NCCCNCCSP(=O)(O)O [amifostine, reference compound]
survival [1]: 0.35 | DRF [1]: 1.45
